Assay results: publication PMC10454409, “Hybrids of Sterically Hindered Phenols and Diaryl Ureas: Synthesis, Switch from Antioxidant Activity to ROS Generation and Induction of Apoptosis” (International Journal of Molecular Sciences, 2023)

Assays:
[1] = test system: M-HeLa cells (human cervix epithelioid carcinoma); assay: MTT cytotoxicity test, M-HeLa; format: cell-based; conditions: Homo sapiens, M-HeLa; MTT test; 24 h incubation per text, 48 h per method
Description: (§1) For the experiments, we used tumor cell cultures M-HeLa clone 11 (epithelioid carcinoma of the cervix, subline HeLa., clone M-HeLa), HuTu 80 (human duodenal adenocarcinoma) and MCF7 (human breast adenocarcinoma (pleural fluid)) from the collection of the Institute of Cytology, Russian Academy of Sciences (St. Petersburg); human liver cells (Chang liver) from the collection of the Research Institute of Virology at the Russian Academy of Medical Sciences (Moscow); and SH-SY5Y (neuroblastoma)from the Laboratory of Tumor Cell Genetics at the Scientific Research Institute of Carcinogenesis N.N. Blokhin National Medical Research Center of Oncology.
(§2) The cytotoxic effect on cells was determined using the colorimetric method of cell proliferation—the MTT test. NADP-H-dependent cellular oxidoreductase enzymes can, under certain conditions, reflect the number of viable cells. These enzymes are able to reduce the tetrazolium dye (MTT)-3-(4,5-dimethylthiazol-2-yl)-2,5-diphenyl-tetrazolium bromide to insoluble blue-violet formazan, which crystallizes inside the cell. The amount of formazan formed is proportional to the number of cells with active metabolism.
(§3) Cells were seeded on a 96-well Nunc plate at a concentration of 5 × 10^3 cells per well in a volume of 100 μL of medium and cultured in a CO2 incubator at 37 °C until a monolayer was formed. […] After 48 h, the nutrient medium was removed from the plates and 100 µL of the nutrient medium without serum with MTT at a concentration of 0.5 mg/mL was added and incubated for 4 h at 37 °C. Formazan crystals were […] 100 µL of DMSO in each well. Optical density was recorded at 540 nm on an in vitro logic microplate reader (Russia). The experiments for all compounds were repeated in triplicate.
(§4) IC50 values were estimated using the Quest Graph IC50 Calculator (AAT Bioquest, Inc., Sunnyvale, CA, USA) (Version 2022) (accessed on 25 June 2022).

[2] = test system: MCF-7 cells (human breast adenocarcinoma); assay: MTT cytotoxicity test, MCF-7; format: cell-based; conditions: Homo sapiens, MCF7, MTT test; 24 h incubation per text, 48 h per method
Protocol: as §2
Formazan crystals were added to 100 µL of DMSO in each well. Optical density was recorded at 540 nm on an in vitro logic microplate reader (Russia). The experiments for all compounds were repeated in triplicate.

[3] = test system: HuTu 80 cells (human duodenal adenocarcinoma); assay: MTT cytotoxicity test, HuTu 80; format: cell-based; conditions: Homo sapiens, HuTu80, read-out: IC50, HuTu 80
Description: as §1, §2, §3, §4

[4] = test system: SH-SY5Y cells (neuroblastoma); assay: MTT cytotoxicity test, SH-SY5Y; format: cell-based; conditions: Homo sapiens, SH-SY5Y; MTT test; 24 h incubation per text, 48 h per method
Description: as §1, §2, §3, §4

Cyclic voltammetry = format: physicochemical; conditions: in CH3CN vs. Ag/AgCl; GC electrode; 0.1 V/s
Description: Electrochemical measurements were taken on a BASi Epsilon EClipse electrochemical analyzer (West Lafayette, IN, USA). The program concentrated cEpsilon-ECUSB-V200 waves at the potential scan rate t = […] in a CH3CN 0.1 M solution of Bu4NBF4 at 295 K. A glassy carbon working electrode (ð = 3 mm) embedded in Teflon and a Pt wire as the counter electrode were used in the electrochemical cell. Before each measurement, the surface of the working electrode was mechanically polished. Ag/AgCl (0.01 M KCl) was used as a reference electrode. The reference electrode was connected with the cell solution by a modified Luggin capillary filled with the supporting electrolyte solution (0.1 M Bu4NBF4 in CH3CN). Thus, the reference electrode assembly had two compartments, each terminated with an ultra-fine glass frit to separate the AgCl from the analyte. The scan rate was 100 mV∙s^−1. The measurements were performed in a temperature-controlled electrochemical cell (volume from 5 mL to 20 mL) in an inert gas atmosphere (N2).
Figure 10 Cyclic voltammogram for the oxidation of SHPs. Conditions: 0.1 mM CH3CN (0.1 M Bu4NBF4); potentials vs. Ag/AgCl; work electrode: GC; scan rate: 0.1 V/s.

SMILES	IC50 [1]	IC50 [2]	IC50 [3]	IC50 [4]	melting point	Oxidation potential (Cyclic voltammetry)
COP(=O)(OC)C(c1cc(C(C)(C)C)c(O)c(C(C)(C)C)c1)c1ccc(NC(=S)Nc2ccccc2)cc1NC(=S)Nc1ccccc1 (stereo not shown) [19a]	> 70 µM	> 70 µM	> 70 µM	> 70 µM	207 to 208 °C	–
O=C(Nc1ccccc1)Nc1ccccc1 [diphenyl urea]	–	–	–	–	–	1.60 V
Cc1cc(C(C)(C)C)c(O)c(C(C)(C)C)c1 [ionol]	–	–	–	–	–	~1.45 V
